From patent US7625948B2, “Ester compound and medicinal use thereof” (Japan Tobacco Inc., priority 2002, dated 2009)

System: HepG2 cells
Experiment: Test Example 2: inhibition of apolipoprotein B secretion from HepG2 cells, ELISA (also used for metabolites in Test Example 8)
Format: cell-based
Settings: Homo sapiens, 24 hours, apo B in supernatant by ELISA, read-out: Test Example 2 Inhibition of apo B secretion IC50
Protocol: Inhibition of Apolipoprotein B Secretion from HepG2 Cells
HepG2 cells were suspended in Dulbecco's Modified Eagle's Medium (DMEM) (containing 10% fetal bovine serum, 100 units/mL penicillin and 100 μg/mL streptomycin), and placed on a 96-well plate (4×10^4 cells/well), then incubated for 24 hours. After removal of the medium, DMEM was replaced by a medium containing a sample dissolved in DMSO or a medium containing DMSO (concentration of DMSO: 0.5%) and incubation was further performed for 24 hours, after which the supernatant was recovered, and concentration of apo B in the supernatant was assayed by Enzyme-Linked Immunosorbent Assay (ELISA)
ELISA was carried out as follows. Anti-human apo B monoclonal antibody (0.5 μg/well) diluted with a solution of sodium carbonate in sodium bicarbonate buffer (50 mL, pH 9.6) was placed in a 96-well plate for ELISA, and allowed to stand at room temperature for 15 hours. After washing the plate, a blocking solution (250 μL/well) was placed in the well, and allowed to stand at room temperature for 1.5 hours. After washing the plate, a standard and a sample (100 μL/well) were placed in the well and allowed to stand at room temperature for one hour. The standard was prepared by adjusting the concentration of the purified human apo B with the DMEM to 0 to 1000 ng/mL. After washing the plate, an anti-human apo B polyclonal antibody labeled with a horse radish peroxidase which was diluted in 1:1000 with DEME (100 μL/well), and allowed to stand at room temperature for one hour. After washing the plate, 2,2-azinobis(3-ethylbenzothiazoline-6-sulfonic acid) solution (100 μL/well) was placed in the well, and allowed to stand at room temperature for one hour. The reaction was stopped by addition of 2% oxalic acid (100 μL/well), and absorbency at 405 nm was measured. Concentration of apo B in the sample was calculated on the basis of a standard curve of the standard. Inhibition rate (%) was calculated from the assayed values in accordance with the following equation.
Inhibition rate (%)=100×(1 minus (concentration of apo B in sample group/concentration of apo B in DMSO group).
Based on the above equation, 50% inhibition concentration (IC50) was determined.
Inhibitory Activity on MTP and apo B Secretion Inhibition by Metabolites
In a similar manner to Test Examples 1 and 2, the activity of metabolites was assayed.

With `CCOC(=O)C(COC(=O)Cc1ccc(NC(=O)c2ccccc2-c2ccc(C(F)(F)F)cc2)c(C(=O)N(C)C)c1)(C(=O)OCC)c1sccc1C` [Example 2-108] the IC50 was 0.82 nM.

`CCOC(=O)C(COC(=O)Cc1ccc(NC(=O)c2ccccc2-c2ccc(C(F)(F)F)cc2)c(C(=O)N(C)C)c1)(C(=O)OCC)c1ccc(C)s1` [Example 2-109] gave an IC50 of 0.93 nM.

`CCOC(=O)C(COC(=O)Cc1ccc(NC(=O)c2ccccc2-c2ccc(C(F)(F)F)cc2)c(C(=O)N(C)C)c1)(C(=O)OCC)c1nccs1` [Example 2-110] gave an IC50 of 0.65 nM.

For `CCCC(COC(=O)Cc1ccc(NC(=O)c2ccccc2-c2ccc(C(F)(F)F)cc2)c(C(=O)N(C)C)c1)(C(=O)OCC)C(=O)OCC` [Example 2-114], the IC50 was 3.1 nM.

For `CCOC(=O)C(CC)(COC(=O)Cc1ccc(NC(=O)c2ccccc2-c2ccc(C(F)(F)F)cc2)c(C(=O)N(C)C)c1)C(=O)OCC` [Example 2-115], the IC50 was 44 nM.

`C=CCC(COC(=O)Cc1ccc(NC(=O)c2ccccc2-c2ccc(C(F)(F)F)cc2)c(C(=O)N(C)C)c1)(C(=O)OCC)C(=O)OCC` [Example 2-117] showed an IC50 of 38 nM.

With `CCOC(=O)C(COC(=O)Cc1ccc(NC(=O)c2ccccc2-c2ccc(C(F)(F)F)cc2)c(C(=O)N(C)C)c1)(C(=O)OCC)C(=O)OCC` [Example 2-118] the IC50 was 49 nM.

For `CCOC(=O)C(COC(=O)Cc1ccc(NC(=O)c2ccccc2-c2ccc(C(F)(F)F)cc2)c(OCC)c1)(C(=O)OCC)c1ccccc1` [Example 3, 2-(2-{3-Ethoxy-4-[(4′-trifluoromethylbiphenyl-2-carbonyl)amino]phenyl}acetoxymethyl)-2-phenylmalonic acid diethyl ester], the IC50 was 1.9 nM.

`CCNC(=O)C(COC(=O)Cc1ccc(NC(=O)c2ccccc2-c2ccc(C(F)(F)F)cc2)c(O)c1)(C(=O)NCC)c1ccccc1` [Example 3-2, {3-Hydroxy-4-[(4′-trifluoromethylbiphenyl-2-carbonyl)amino]phenyl}acetic acid 2,2-bisethylcarbamoyl-2-phenylethyl ester] showed an IC50 of 4.2 nM.

`CCOC(=O)C(COC(=O)Cc1ccc(NC(=O)c2ccccc2-c2ccc(C(F)(F)F)cc2)c(OC(C)C)c1)(C(=O)OCC)c1ccccc1` [Example 3-9] was tested, and the IC50 was 1.6 nM.

With `CCCOc1cc(CC(=O)OCC(C(=O)NCC)(C(=O)NCC)c2ccccc2)ccc1NC(=O)c1ccccc1-c1ccc(C(F)(F)F)cc1` [Example 3-12] the IC50 was 0.72 nM.

For `CCNC(=O)C(COC(=O)Cc1ccc(NC(=O)c2ccccc2-c2ccc(C(F)(F)F)cc2)c(OCc2ccccc2)c1)(C(=O)NCC)c1ccccc1` [Example 3-13], the IC50 was 1.9 nM.

For `CCOC(=O)C(COC(=O)Cc1ccc(NC(=O)c2ccccc2-c2ccc(C(F)(F)F)cc2)c(O)c1)(C(=O)OCC)c1ccccc1` [Example 3-15], the IC50 was 49.9 nM.

`CCNC(=O)C(COC(=O)Cc1ccc(NC(=O)c2ccccc2-c2ccc(C(F)(F)F)cc2)c(N(C)C)c1)(C(=O)NCC)c1ccccc1` [Example 4, 2-{3-Dimethylamino-4-[(4′-trifluoromethylbiphenyl-2-carbonyl)amino]phenyl}acetic acid 2,2-bisethylcarbamoyl-2-phenylethyl ester] gave an IC50 of 0.33 nM.

`CCNC(=O)C(COC(=O)Cc1ccc(NC(=O)c2ccccc2-c2ccc(C(F)(F)F)cc2)c(N2CCCCC2)c1)(C(=O)NCC)c1ccccc1` [Example 4-2] gave an IC50 of 16 nM.

For `CCNC(=O)C(COC(=O)Cc1ccc(NC(=O)c2ccccc2-c2ccc(C(F)(F)F)cc2)c(N2CCCC2)c1)(C(=O)NCC)c1ccccc1` [Example 4-3], the IC50 was 7.9 nM.

Compound `CCOC(=O)C(COC(=O)Cc1ccc(NC(=O)c2ccccc2-c2ccc(C(F)(F)F)cc2)c(N2CCCC2)c1)(C(=O)OCC)c1ccccc1` [Example 4-5] has an IC50 of 5.2 nM.

With `CCOC(=O)C(COC(=O)Cc1ccc(NC(=O)c2ccccc2-c2ccc(C(F)(F)F)cc2)c(N(C)C)c1)(C(=O)OCC)c1ccccc1` [Example 4-6] the IC50 was 7.5 nM.

In the case of `CCOC(=O)C(COC(=O)Cc1ccc(NC(=O)c2ccccc2-c2ccc(C(F)(F)F)cc2)c(N2CCOCC2)c1)(C(=O)OCC)c1ccccc1` [Example 4-7], the IC50 is reported as 15 nM.

With `CCOC(=O)C(COC(=O)Cc1ccc(NC(=O)c2ccccc2-c2ccc(C(F)(F)F)cc2)c(N(CC)CC)c1)(C(=O)OCC)c1ccccc1` [Example 4-8] the IC50 was 10 nM.

With `CCNC(=O)C(CCOC(=O)Cc1cccc(NC(=O)c2ccccc2-c2ccc(C(F)(F)F)cc2)c1OC)(C(=O)NCC)c1ccccc1` [Example 5-12] the IC50 was 1.3 nM.

Compound `CCOC(=O)C(CCOC(=O)Cc1cccc(NC(=O)c2ccccc2-c2ccc(C(F)(F)F)cc2)c1OC)(C(=O)OCC)c1ccccc1` [Example 5-13] has an IC50 of 2.4 nM.

In the case of `CCNC(=O)C(CCOC(=O)Cc1cccc(NC(=O)c2ccccc2-c2ccc(C(F)(F)F)cc2)c1OCC)(C(=O)NCC)c1ccccc1` [Example 5-14], the IC50 is reported as 0.34 nM.

In the case of `CCOC(=O)C(CCOC(=O)Cc1cccc(NC(=O)c2ccccc2-c2ccc(C(F)(F)F)cc2)c1OCC)(C(=O)OCC)c1ccccc1` [Example 5-15], the IC50 is reported as 6.4 nM.

`CCOC(=O)C(CCOC(=O)Cc1cccc(NC(=O)c2ccccc2-c2ccc(C(F)(F)F)cc2)c1OC(C)C)(C(=O)OCC)c1ccccc1` [Example 5-16] gave an IC50 of 3 nM.

In the case of `CCOC(=O)C(CCOC(=O)Cc1cccc(NC(=O)c2ccccc2-c2ccc(C(F)(F)F)cc2)c1C(=O)OC)(C(=O)OCC)c1ccccc1` [Example 5-17], the IC50 is reported as 5.2 nM.

`CCNC(=O)C(COC(=O)Cc1ccc2c(c1)oc(=O)n2C(=O)c1ccccc1-c1ccc(C(F)(F)F)cc1)(C(=O)NCC)c1ccccc1` [Example 9-3, [2-Oxo-3-(4′-trifluoromethylbiphenyl-2-carbonyl)-2,3-dihydrobenzoxazol-6-yl]acetic acid 2,2-bisethylcarbamoyl-2-phenylethyl ester] was tested, and the IC50 was 59 nM.

`CCOC(=O)c1cc(CC(=O)OCC(C(=O)OCC)(C(=O)OCC)c2ccccc2)ccc1NC(=O)c1ccccc1-c1ccc(C(F)(F)F)cc1` [Example 9-4, 2-(2-{3-Ethoxycarbonyl-4-[(4′-trifluoromethylbiphenyl-2-carbonyl)amino]phenyl}acetoxymethyl)-2-phenylmalonic acid diethyl ester] showed an IC50 of 9.9 nM.

Compound `CCOC(=O)C(COC(=O)CCc1ccc(NC(=O)c2ccccc2-c2ccc(C(F)(F)F)cc2)c(C(=O)N(C)C)c1)(C(=O)OCC)c1ccccc1` [Example 9-5, 2-(3-{3-Dimethylcarbamoyl-4-[(4′-trifluoromethylbiphenyl-2-carbonyl)-amino]-phenyl}-propionyloxymethyl)-2-phenyl-malonic acid diethyl ester] has an IC50 of 3.1 nM.

In the case of `CCNC(=O)C(COC(=O)c1ccc(CNC(=O)c2ccccc2-c2ccc(C(F)(F)F)cc2)cc1)(C(=O)NCC)c1ccccc1` [Example 9-6], the IC50 is reported as 59 nM.

Compound `CCNC(=O)C(COC(=O)Cc1ccc(NC(=O)c2ccccc2-c2ccc(C(F)(F)F)cc2)c(C(=O)OCc2ccccc2)c1)(C(=O)NCC)c1ccccc1` [Example 9-8] has an IC50 of 6.9 nM.

Work on `CCOC(=O)C(COC(=O)Cc1ccc(NC(=O)c2ccccc2-c2ccc(C(F)(F)F)cc2)c(C(=O)OCc2ccccc2)c1)(C(=O)OCC)c1ccccc1` [Example 9-14] yielded an IC50 of 41 nM.

Work on `CCOC(=O)C(COC(=O)Cc1ccc2c(c1)C(=O)N2C(=O)c1ccccc1-c1ccc(C(F)(F)F)cc1)(C(=O)OCC)c1ccccc1` [Example 9-17] yielded an IC50 of 23 nM.

`CCOC(=O)C(COC(=O)Cc1ccc(NC(=O)c2ccccc2-c2ccc(C(F)(F)F)cc2)c(NC(C)=O)c1)(C(=O)OCC)c1ccccc1` [Example 9-21] gave an IC50 of 20 nM.

`CCOC(=O)C(COC(=O)Cc1ccc(NC(=O)c2ccccc2-c2ccc(C(F)(F)F)cc2)c(NC(=O)OC)c1)(C(=O)OCC)c1ccccc1` [Example 9-22] gave an IC50 of 0.96 nM.

With `CCOC(=O)C(COC(=O)Cc1ccc(NC(=O)c2ccccc2-c2ccc(C(F)(F)F)cc2)c(-c2nc(C)cs2)c1)(C(=O)OCC)c1ccccc1` [Example 9-23] the IC50 was 8.77 nM.

With `CCOC(=O)C(COC(=O)Cc1ccc(NC(=O)c2ccccc2-c2ccc(C(F)(F)F)cc2)c(-c2ccccc2)c1)(C(=O)OCC)c1ccccc1` [Example 9-24] the IC50 was 7.86 nM.

In the case of `CCOC(=O)C(COC(=O)Cc1ccc(NC(=O)c2ccccc2-c2ccc(C(F)(F)F)cc2)c(C(=O)N(C)OC)c1)(C(=O)OCC)c1ccccc1` [Example 9-27], the IC50 is reported as 0.82 nM.
